Measurements reported in paper PMC5634933 (Biochemistry, 2017).
Read-outs that look alike come from different tables or passages of the source.

How the values were obtained:
Type in all cases: biochemical
[1] = target: WT pol β (Homo sapiens, UniProt P06746); conditions: WT; for Kd / kpol: 37 °C
[2] = target: I260M pol β (Homo sapiens, UniProt P06746, I260M); conditions: for Kd / kpol: 37 °C
[3] = test system: WT pol β; conditions: D kpol WT analogue/D kpol I260M analogue
[4] = A-G: misincorporation of dGTP (analogue) opposite template A
[5] = I260M, A-G: misincorporation of dGTP (analogue) opposite template A
[6] = A-T: correct incorporation of dTTP (analogue) opposite template A
[7] = I260M, A-T: correct incorporation of dTTP (analogue) opposite template A

Nc1nc2c(ncn2[C@H]2C[C@H](O)[C@@H](COP(=O)(O)OP(=O)(O)OP(=O)(O)O)O2)c(=O)[nH]1 [A-G O, dGTP, reference compound]
Efficiency (kpol/Kd) [1, 4]: 2.2e-05 ± 8.5e-06 µM⁻¹ s⁻¹
Kd [1, 4]: 626 ± 220 µM
kpol [1, 4]: 0.014 ± 0.002 s⁻¹
Efficiency (kpol/Kd) [2, 5]: 1.8e-05 ± 9.1e-06 µM⁻¹ s⁻¹
Kd [2, 5]: 795 ± 373 µM
kpol [2, 5]: 0.014 ± 0.003 s⁻¹

Cc1cn([C@H]2C[C@H](O)[C@@H](COP(=O)(O)OP(=O)(O)CP(=O)(O)O)O2)c(=O)[nH]c1=O [A-T CH2, β,γ-CH2 dTTP]
Efficiency (kpol/Kd) [1, 6]: 0.12 ± 0.03 µM⁻¹ s⁻¹
Kd [1, 6]: 6.7 ± 1.8 µM
kpol [1, 6]: 0.80 ± 0.10 s⁻¹
Efficiency (kpol/Kd) [2, 7]: 0.06 ± 0.02 µM⁻¹ s⁻¹
Kd [2, 7]: 5 ± 1.5 µM
kpol [2, 7]: 0.30 ± 0.01 s⁻¹

Cc1cn([C@H]2C[C@H](O)[C@@H](COP(=O)(O)OP(=O)(O)OP(=O)(O)O)O2)c(=O)[nH]c1=O [A-T O, dTTP, reference compound]
Efficiency (kpol/Kd) [1, 6]: 1.22 ± 0.14 µM⁻¹ s⁻¹
Kd [1, 6]: 10.5 ± 1.1 µM
kpol [1, 6]: 12.8 ± 0.60 s⁻¹
kpol ([1]; A-T: correct incorporation of dTTP (analogue) opposite template A, listed as dTTP): 12.8 s⁻¹
Efficiency (kpol/Kd) [2, 7]: 0.20 ± 0.08 µM⁻¹ s⁻¹
Kd [2, 7]: 40.1 ± 15.5 µM
kpol [2, 7]: 7.90 ± 1.30 s⁻¹
kpol ([2]; I260M, A-T: correct incorporation of dTTP (analogue) opposite template A, listed as dTTP): 7.9 s⁻¹
Kd of I260M relative to WT (fold higher) ([2]; correct parent dTTP): 4 fold

CHCl
D kpol (analogue/parent) ([1]; D kpol analogue/D kpol parent): 0.9
F (analogue/parent) ([1]; F analogue/F parent): 0.5
F analogue (fidelity) ([1]; dTTP (correct) vs dGTP (incorrect) analogue opposite template A): 27818
D kpol(c/i) analogue ([1]; discrimination at kpol = kpol(correct)/kpol (incorrect)): 842.9
D kpol analogue WT/I260M [3]: 1.5
D kpol (analogue/parent) ([2]; I260M, D kpol analogue/D kpol parent): 1.0
F (analogue/parent) ([2]; I260M, F analogue/F parent): 0.6
F analogue (fidelity) ([2]; I260M, dTTP (correct) vs dGTP (incorrect) analogue opposite template A): 7060
D kpol(c/i) analogue ([2]; I260M, discrimination at kpol = kpol(correct)/kpol (incorrect)): 551.7
I260M/WT analogue ([2]; [F I260M(analogue)]/[F WT (analogue)]): 0.3
I260M/WT (analogue/parent) ([2]; [F I260M(analogue/parent)]/[F WT (analogue/parent)]): 1.3
